Legend:
[1] = target: T1, 5-hydroxytryptamine receptor 2C (Homo sapiens, UniProt P28335); experiment: Displacement of [3H]mesulergine from human 5HT2C receptor in human tsA201 cells; format: cell-based
T1 sequence (P28335 whole entry): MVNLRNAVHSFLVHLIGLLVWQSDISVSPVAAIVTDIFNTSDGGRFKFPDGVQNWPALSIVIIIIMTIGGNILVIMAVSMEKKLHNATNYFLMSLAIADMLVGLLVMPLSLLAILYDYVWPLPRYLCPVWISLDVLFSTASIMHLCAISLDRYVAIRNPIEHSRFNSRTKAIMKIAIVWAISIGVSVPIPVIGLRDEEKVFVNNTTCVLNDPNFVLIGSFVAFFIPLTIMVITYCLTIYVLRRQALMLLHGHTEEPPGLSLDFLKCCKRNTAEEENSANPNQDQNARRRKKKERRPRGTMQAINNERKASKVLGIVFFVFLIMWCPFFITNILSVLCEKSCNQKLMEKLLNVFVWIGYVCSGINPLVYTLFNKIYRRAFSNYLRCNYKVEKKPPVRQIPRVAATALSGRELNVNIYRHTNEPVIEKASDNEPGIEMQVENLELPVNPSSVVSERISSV

[2] = target: 5-hydroxytryptamine receptor 6 (Homo sapiens, UniProt P50406); experiment: Displacement of [3H]5-LSD from human 5HT6 receptor expressed in human HeLa cells; format: cell-based
Chain of 5-hydroxytryptamine receptor 6 (P50406 whole entry): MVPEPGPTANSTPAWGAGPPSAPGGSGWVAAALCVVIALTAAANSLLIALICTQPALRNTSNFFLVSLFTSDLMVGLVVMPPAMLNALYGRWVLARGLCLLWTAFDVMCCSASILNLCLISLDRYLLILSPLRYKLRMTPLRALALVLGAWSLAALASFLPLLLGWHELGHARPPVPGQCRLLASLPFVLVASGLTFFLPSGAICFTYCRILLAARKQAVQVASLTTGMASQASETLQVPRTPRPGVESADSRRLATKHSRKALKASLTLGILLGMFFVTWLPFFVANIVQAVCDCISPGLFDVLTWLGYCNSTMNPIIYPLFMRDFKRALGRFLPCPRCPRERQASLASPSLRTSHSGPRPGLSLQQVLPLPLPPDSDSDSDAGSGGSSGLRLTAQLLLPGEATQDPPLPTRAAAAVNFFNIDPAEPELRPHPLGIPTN

Ki [1] [µM] | Ki [2] [µM] | Structure (SMILES)
0.049 | 0.081 | Cc1ccccc1Sc1ccc2c(c1)N1CCNCC1C2 (stereo unspecified)
0.077 | 0.05 | Cc1cccc(Sc2ccc3c(c2)N2CCNCC2C3)c1 (stereo unspecified)
0.068 | 0.11 | Cc1ccc(Sc2ccc3c(c2)N2CCNCC2C3)cc1 (stereo unspecified)
0.041 | 0.023 | COc1ccccc1Sc1ccc2c(c1)N1CCNCC1C2 (stereo unspecified)
0.12 | 0.11 | COc1cccc(Sc2ccc3c(c2)N2CCNCC2C3)c1 (stereo unspecified)
0.057 | 0.078 | COc1ccc(Sc2ccc3c(c2)N2CCNCC2C3)cc1 (stereo unspecified)
0.049 | 0.15 | Fc1ccccc1Sc1ccc2c(c1)N1CCNCC1C2 (stereo unspecified)
0.061 | 0.16 | Fc1ccc(Sc2ccc3c(c2)N2CCNCC2C3)cc1 (stereo unspecified)
0.083 | 0.33 | FC(F)(F)c1ccccc1Sc1ccc2c(c1)N1CCNCC1C2 (stereo unspecified)
0.18 | 0.3 | FC(F)(F)c1cccc(Sc2ccc3c(c2)N2CCNCC2C3)c1 (stereo unspecified)
0.28 | 0.76 | FC(F)(F)c1ccc(Sc2ccc3c(c2)N2CCNCC2C3)cc1 (stereo unspecified)

Structure (SMILES) | Ki [1] [µM] | Ki [2] [µM]
c1ccc(Sc2cccc(N3CCNCC3)c2)cc1 | 0.091 | 
COc1ccc(Sc2cccc(N3CCNCC3)c2)cc1 | 0.074 | 
NCCc1cccc(Sc2ccccc2)c1 | 0.15 | 
O=C1NCCN1CCN1CCC(c2cn(-c3ccc(F)cc3)c3ccc(Cl)cc23)CC1 [SERTINDOLE] |  | 0.005

Reference: ChEMBL document CHEMBL1782020, “Novel 7-phenylsulfanyl-1,2,3,4,10,10a-hexahydro-pyrazino[1,2-a]indoles as dual serotonin 5-HT2C and 5-HT6 receptor ligands” (Bioorg Med Chem Lett, 2010)
